Laboratory results published in patent US20230055237A1, “COMPOUNDS AND METHODS FOR THE TREATMENT OF CYSTIC FIBROSIS” (Flatley Discovery Lab, LLC, priority 2019, published 2023).

Target: T1, CFTR (Homo sapiens, UniProt P13569, DEL508-508)
T1 construct: Primary CF airway epithelial cells were obtained from the UNC Cystic Fibrosis Tissue Procurement and Cell Culture Core; host or cells: primary CF airway epithelial cells, differentiated at the air-liquid interface
Assay: Equivalent current assay in primary CF airway epithelial cells (NAUC, combination with 1st site corrector FDL169 or VX-809)
Type: cell-based
Conditions: 37° C., 24 h

[1] = test compound 3 μM in combination with 1st site corrector VX-809 (3 μM)
[2] = test compound 10 μM in combination with 1st site corrector VX-809 (3 μM)
[3] = test compound 1 μM in combination with 1st site corrector FDL169 (3 μM)
[4] = test compound 3 μM in combination with 1st site corrector FDL169 (3 μM)
[5] = test compound 1 μM in combination with 1st site corrector VX-809 (3 μM)
[6] = test compound 10 μM in combination with 1st site corrector FDL169 (3 μM)

T1 sequence (P13569 with tags, fused parts or gaps DEL508-508): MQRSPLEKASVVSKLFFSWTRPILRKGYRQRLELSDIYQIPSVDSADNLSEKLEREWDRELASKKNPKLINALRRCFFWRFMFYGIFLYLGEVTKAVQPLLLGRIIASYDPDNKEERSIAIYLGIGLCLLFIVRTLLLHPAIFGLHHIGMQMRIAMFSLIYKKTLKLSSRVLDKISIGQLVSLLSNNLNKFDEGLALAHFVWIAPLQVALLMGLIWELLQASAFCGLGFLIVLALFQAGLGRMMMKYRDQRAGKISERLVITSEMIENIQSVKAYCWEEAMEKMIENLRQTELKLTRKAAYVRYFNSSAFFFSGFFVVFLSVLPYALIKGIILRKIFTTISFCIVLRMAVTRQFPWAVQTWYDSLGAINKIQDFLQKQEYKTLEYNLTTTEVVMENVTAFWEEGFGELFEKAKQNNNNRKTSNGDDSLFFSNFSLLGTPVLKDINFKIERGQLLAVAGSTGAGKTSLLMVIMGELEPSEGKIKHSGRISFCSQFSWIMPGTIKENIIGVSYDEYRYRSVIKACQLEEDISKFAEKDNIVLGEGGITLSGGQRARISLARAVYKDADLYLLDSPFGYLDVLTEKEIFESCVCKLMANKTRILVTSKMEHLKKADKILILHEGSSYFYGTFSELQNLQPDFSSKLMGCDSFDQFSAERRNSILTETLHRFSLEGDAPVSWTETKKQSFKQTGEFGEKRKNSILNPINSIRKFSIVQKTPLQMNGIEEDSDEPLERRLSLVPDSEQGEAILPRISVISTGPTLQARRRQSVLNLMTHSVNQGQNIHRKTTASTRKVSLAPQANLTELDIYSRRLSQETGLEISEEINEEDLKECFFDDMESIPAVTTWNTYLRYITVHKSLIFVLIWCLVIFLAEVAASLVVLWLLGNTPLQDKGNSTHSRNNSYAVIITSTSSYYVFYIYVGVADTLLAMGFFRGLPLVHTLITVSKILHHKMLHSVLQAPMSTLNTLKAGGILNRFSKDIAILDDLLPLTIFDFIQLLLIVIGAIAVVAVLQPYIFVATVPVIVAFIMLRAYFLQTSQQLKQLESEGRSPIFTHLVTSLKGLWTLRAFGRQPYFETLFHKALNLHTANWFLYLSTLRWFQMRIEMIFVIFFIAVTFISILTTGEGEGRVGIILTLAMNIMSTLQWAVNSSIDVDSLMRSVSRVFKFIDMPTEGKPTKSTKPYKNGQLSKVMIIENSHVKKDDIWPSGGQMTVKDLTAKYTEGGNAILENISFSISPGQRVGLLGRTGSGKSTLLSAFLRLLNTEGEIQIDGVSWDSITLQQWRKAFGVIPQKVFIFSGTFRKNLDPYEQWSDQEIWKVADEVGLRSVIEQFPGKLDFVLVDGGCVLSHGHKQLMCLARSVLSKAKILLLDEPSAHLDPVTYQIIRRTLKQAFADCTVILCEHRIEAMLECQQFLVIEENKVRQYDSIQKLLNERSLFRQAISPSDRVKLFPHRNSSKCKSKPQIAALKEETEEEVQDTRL

Compound | Nauc @ 3 μM [1] | Nauc @ 10 μM [2] | Nauc @ 1 μM [3] | Nauc @ 3 μM [4] | also measured
O=C(Nc1cncc(C(F)(F)F)n1)C1C2CC3(CC3)CN2C2(C(=O)Nc3c(Cl)cc(Cl)cc32)C1C(=O)O (stereo not drawn) [Example 2] | + (NAUC “+” refers to an observed NAUC <140% of positive control) | ++ (NAUC “++” refers to an observed NAUC 170-140% of positive control) | – | – | –
CC(C)(C)CN(C(=O)[C@H]1[C@H]2C[C@](C)(OCc3ccccc3)CN2[C@]2(C(=O)Nc3c(Cl)cc(Cl)cc32)[C@H]1C(=O)O)c1cc(Cl)cc(Cl)c1 [Example 90, (1′R,2′S,3R,6′S,7a′R)-6′-(benzyloxy)-5,7-dichloro-1-((3,5-dichlorophenyl)(neopentyl)carbamoyl)-6′-methyl-2-oxo-1′,2′,5′,6′,7′,7a′-hexahydrospiro[indoline-3,3′-pyrrolizine]-2′-carboxylic acid] | – | – | + (NAUC “+” refers to an observed NAUC <140% of positive control) | + (NAUC “+” refers to an observed NAUC <140% of positive control) | –
C[C@]1(OCc2ccccc2)C[C@@H]2[C@H](C(=O)N(CC3CCCC3)c3cc(Cl)cc(Cl)c3)[C@H](C(=O)O)[C@@]3(C(=O)Nc4c(Cl)cc(Cl)cc43)N2C1 [Example 94] | – | – | ++ (NAUC “++” refers to an observed NAUC 170-140% of positive control) | ++ (NAUC “++” refers to an observed NAUC 170-140% of positive control) | –
Cc1ccc(CCNC(=O)C2C3CC(F)(F)CN3C3(C(=O)Nc4c(Cl)cc(Cl)cc43)C2C(=O)O)cc1 (stereo not drawn) [Example 49] | ++ (NAUC “++” refers to an observed NAUC 170-140% of positive control) | +++ (NAUC “+++” refers to an observed NAUC>170% of positive control) | – | – | –
CN(C(=O)[C@@H]1[C@H](C(F)(F)F)NC2(C(=O)Nc3c(Cl)cc(Cl)cc32)[C@@H]1C(=O)O)c1cc(Cl)cc(Cl)c1 (single isomer, unassigned) [Example 269a] | + (NAUC “+” refers to an observed NAUC <140% of positive control) | + (NAUC “+” refers to an observed NAUC <140% of positive control) | – | – | Nauc @ 1 μM [5]: + (NAUC “+” refers to an observed NAUC <140% of positive control)
CN(C(=O)[C@H]1[C@H]2CC(F)(F)CN2[C@]2(C(=O)Nc3c(Cl)cc(Cl)cc32)[C@H]1C(=O)O)c1cccc(C(F)(F)F)c1 [Example 157] | – | – | ++ (NAUC “++” refers to an observed NAUC 170-140% of positive control) | ++ (NAUC “++” refers to an observed NAUC 170-140% of positive control) | –
Cc1oc(=O)oc1COC(=O)[C@H]1[C@@H](C(=O)N(C)c2cc(Cl)cc(Cl)c2)[C@H]2CC(F)(F)CN2C12C(=O)Nc1c(Cl)cc(Cl)cc12 (mixture of isomers) [Example 250.3a, rac-(5-methyl-2-oxo-1,3-dioxo1-4-yl)methyl (1′R,2′S,3R,7a′R)-5,7-dichloro-1-((3,5-dichlorophenyl)(methyl)carbamoyl)-6′,6′-difluoro-2-oxo-1′,2′,5′,6′,7′,7a′-hexahydrospiro[indoline-3,3′-pyrrolizine]-2′-carboxylate] | – | +++ (NAUC “+++” refers to an observed NAUC>170% of positive control) | – | – | –
COCCN1C(=O)[C@]2(c3cc(Cl)cc(Cl)c31)[C@@H](C(=O)O)[C@@H](C(=O)N(CC1CC1)c1cc(Cl)cc(Cl)c1)[C@H]1CC(F)(F)CN12 [Example 203] | – | – | + (NAUC “+” refers to an observed NAUC <140% of positive control) | + (NAUC “+” refers to an observed NAUC <140% of positive control) | –
O=C(Nc1cc(Cl)cc(Cl)c1)C1C(C(F)(F)c2cccc(C(F)(F)F)c2)NC2(C(=O)Nc3c(Cl)cc(Cl)cc32)C1C(=O)O (stereo not drawn) [Example 70.a] | – | + (NAUC “+” refers to an observed NAUC <140% of positive control) | – | – | –
O=C(Nc1cccc2c1OCCO2)[C@H]1[C@H]2CC(F)(F)CN2[C@]2(C(=O)Nc3c(Cl)cc(Cl)cc32)[C@H]1C(=O)O [Example 129] | + (NAUC “+” refers to an observed NAUC <140% of positive control) | – | – | – | Nauc @ 1 μM [5]: + (NAUC “+” refers to an observed NAUC <140% of positive control)
CN(C(=O)N1C(=O)C2(c3cc(Cl)cc(Cl)c31)C(C(=O)OCOC(=O)C(C)(C)C)CC1CC(F)(F)CN12)c1cc(Cl)cc(Cl)c1 (single isomer, unassigned) [Example 251b, (pivaloyloxy)methyl 5,7-dichloro-1-((3,5-dichlorophenyl)(methyl)carbamoyl)-6′,6′-difluoro-2-oxo-1′,2′,5′,6′,7′,7a′-hexahydrospiro[indoline-3,3′-pyrrolizine]-2′-carboxylate] | – | + (NAUC “+” refers to an observed NAUC <140% of positive control) | – | – | –
COc1cc(C(F)(F)F)cc(NC(=O)C2C3CC(F)(F)CN3C3(C(=O)Nc4c(Cl)cc(Cl)cc43)C2C(=O)O)n1 (single isomer, unassigned) [Example 80.7a.2, 5,7-dichloro-6′,6′-difluoro-1′-((6-methoxy-4-(trifluoromethyl)pyridin-2-yl)carbamoyl)-2-oxo-1′,2′,5′,6′,7′,7a′-hexahydrospiro[indoline-3,3′-pyrrolizine]-2′-carboxylic acid] | +++ (NAUC “+++” refers to an observed NAUC>170% of positive control) | +++ (NAUC “+++” refers to an observed NAUC>170% of positive control) | – | – | Nauc @ 1 μM [5]: + (NAUC “+” refers to an observed NAUC <140% of positive control)
O=C(Nc1cncc(C(F)(F)F)n1)C1C2C[C@@](O)(C(F)(F)F)CN2C2(C(=O)Nc3c(Cl)cc(Cl)cc32)C1C(=O)O (single isomer, unassigned) [Example 75.a] | – | + (NAUC “+” refers to an observed NAUC <140% of positive control) | – | – | –
O=C(Nc1cc(Cl)cc(Cl)c1)C1C(C(F)(F)c2cccc(C(F)(F)F)c2)NC2(C(=O)Nc3c(Cl)cc(Cl)cc32)C1C(=O)O (stereo not drawn) [Example 70.c] | + (NAUC “+” refers to an observed NAUC <140% of positive control) | +++ (NAUC “+++” refers to an observed NAUC>170% of positive control) | – | – | Nauc @ 1 μM [5]: + (NAUC “+” refers to an observed NAUC <140% of positive control)
Cn1cc2cc(NC(=O)[C@H]3[C@H]4CC(F)(F)CN4[C@]4(C(=O)Nc5c(Cl)cc(Cl)cc54)[C@H]3C(=O)O)ccc2n1 [Example 143] | – | – | + (NAUC “+” refers to an observed NAUC <140% of positive control) | + (NAUC “+” refers to an observed NAUC <140% of positive control) | –
CN(C(=O)[C@H]1[C@H]2CC(F)(F)CN2[C@]2(C(=O)Nc3c(Cl)cc(Cl)cc32)[C@H]1C(=O)NS(=O)(=O)c1ccccc1)c1cc(Cl)cc(Cl)c1 [Example 261, (1′R,2′S,3R,7a′R)-5,7-dichloro-N1′-(3,5-dichlorophenyl)-6′,6′-difluoro-N1′-methyl-2-oxo-N2′-(phenylsulfonyl)-1′,2′,5′,6′,7′,7a′-hexahydrospiro[indoline-3,3′-pyrrolizine]-1,2′-dicarboxamide] | – | + (NAUC “+” refers to an observed NAUC <140% of positive control) | – | – | –
O=C(Nc1cc(Cl)cc(Cl)c1F)C1C2CC(F)(F)CN2C2(C(=O)Nc3c(Cl)cc(Cl)cc32)C1C(=O)O (stereo not drawn) [Example 42] | +++ (NAUC “+++” refers to an observed NAUC>170% of positive control) | +++ (NAUC “+++” refers to an observed NAUC>170% of positive control) | – | – | –
O=C(Nc1cc(Cl)cc(Cl)c1)C1C(COCc2ccccc2)NC2(C(=O)Nc3c(Cl)cc(Cl)cc32)C1C(=O)O (stereo not drawn) [Example 32] | +++ (NAUC “+++” refers to an observed NAUC>170% of positive control) | +++ (NAUC “+++” refers to an observed NAUC>170% of positive control) | – | – | –
CN(C)C(=O)CN(C(=O)[C@H]1[C@H]2CC(F)(F)CN2[C@]2(C(=O)Nc3c(Cl)cc(Cl)cc32)[C@H]1C(=O)O)c1cc(Cl)cc(Cl)c1 [Example 153] | – | – | + (NAUC “+” refers to an observed NAUC <140% of positive control) | + (NAUC “+” refers to an observed NAUC <140% of positive control) | –
CCCN(C(=O)[C@H]1[C@H]2CC(F)(F)CN2[C@]2(C(=O)Nc3c(Cl)cc(Cl)cc32)[C@H]1C(=O)O)c1cc(Cl)cc(Cl)c1 [Example 172] | – | – | +++ (NAUC “+++” refers to an observed NAUC>170% of positive control) | +++ (NAUC “+++” refers to an observed NAUC>170% of positive control) | Nauc @ 10 μM [6]: +++ (NAUC “+++” refers to an observed NAUC>170% of positive control)
O=C(Nc1cc(Cl)cc(Cl)c1)C1C2CC(F)(F)CN2C2(C(=O)Nc3c(Cl)cc(Cl)cc32)C1C(=O)NO (single isomer, unassigned) [Example 226b, 5,7-dichloro-N1′-(3,5-dichlorophenyl)-6′,6′-difluoro-N2′-hydroxy-2-oxo-1′,2′,5′,6′,7′,7a′-hexahydrospiro[indoline-3,3′-pyrrolizine]-1′,2′-dicarboxamide] | +++ (NAUC “+++” refers to an observed NAUC>170% of positive control) | +++ (NAUC “+++” refers to an observed NAUC>170% of positive control) | – | – | Nauc @ 1 μM [5]: + (NAUC “+” refers to an observed NAUC <140% of positive control)
O=C(O)[C@H]1[C@@H](C(=O)N(CC23CC(F)(C2)C3)c2cc(Cl)cc(Cl)c2)[C@H]2CC(F)(F)CN2[C@]12C(=O)Nc1c(Cl)cc(Cl)cc12 [Example 188] | – | – | +++ (NAUC “+++” refers to an observed NAUC>170% of positive control) | ++ (NAUC “++” refers to an observed NAUC 170-140% of positive control) | Nauc @ 10 μM [6]: ++ (NAUC “++” refers to an observed NAUC 170-140% of positive control)
